Source: BindingDB's records for doi:10.1016/s0960-894x(98)00660-x (Smithkline Beecham Research Unit, 1999)

Target: V-type proton ATPase (Gallus gallus)
Test: Compound was measured for the inhibition of bafilomycin-sensitive ATPase activity in partially purified membrane preparation from chicken osteoclast (cOC)

| SMILES | IC50 [nM] |
| --- | --- |
| CO/C(=C\C=C\c1cc2cc(Cl)c(Cl)cc2[nH]1)C(=O)NC1CC(C)(C)N(C)C(C)(C)C1 [(2Z,4E)-5-(5,6-Dichloro-1H-indol-2-yl)-2-methoxy-penta-2,4-dienoic acid (1,2,2,6,6-pentamethyl-piperidin-4-yl)-amide] | 27 |
| CO/C(=C/C=C/c1cc2cc(Cl)c(Cl)cc2[nH]1)C(=O)NC1CC(C)(C)N(C)C(C)(C)C1 [TCMDC-139097] | 2360 |
| CO/C(=C\C=C/c1cc2cc(Cl)c(Cl)cc2[nH]1)C(=O)NC1CC(C)(C)N(C)C(C)(C)C1 [TCMDC-139106] | 663 |
